Measured values reported in ChEMBL document CHEMBL5316335, “Tanzawaic Acid Derivatives from the Marine-Derived Penicillium steckii as Inhibitors of RANKL-Induced Osteoclastogenesis” (J Nat Prod, 2023).
Activity calls are given as the source filed them. The calls are words filed in the database; no cut-off is given here.

Experiments:
[1] = test system: Klebsiella pneumoniae; assay: Antibacterial activity against Klebsiella pneumoniae assessed as inhibition of bacterial growth by broth microdilution method; assay type: functional, organism-based
[2] = Inhibition of LPS-induced NF-kappaB activation in mouse RAW264.7 cells transfected with NF-kappaB luciferase reporter gene pretreated with compounds for 30 mins followed by LPS stimulation for 8 hrs by luciferase reporter gene assay; assay type: cell-based
[3] = test system: Candida albicans; assay: Antifungal activity against Candida albicans Berkhout assessed as inhibition of fungal growth by broth microdilution method; assay type: functional, organism-based
[4] = test system: Staphylococcus aureus; assay: Antibacterial activity against Staphylococcus aureus assessed as inhibition of bacterial growth by broth microdilution method; assay type: functional, organism-based
[5] = test system: Colletotrichum gloeosporioides; assay: Antifungal activity against Colletotrichum gloeosporioides assessed as inhibition of fungal growth by broth microdilution method; assay type: functional, organism-based
[6] = test system: Pyricularia grisea; assay: Antifungal activity against Magnaporthe grisea assessed as inhibition of fungal growth by broth microdilution method; assay type: functional, organism-based
[7] = test system: Sclerotinia sclerotiorum; assay: Antifungal activity against Sclerotinia sclerotiorum Hanzawa assessed as inhibition of fungal growth by broth microdilution method; assay type: functional, organism-based
[8] = test system: LNCaP; assay: Anticancer activity against human LNCaP cells assessed as reduction in cell viability by MTT assay; assay type: functional, cell-based
[9] = test system: CWR22R; assay: Anticancer activity against human 22Rv1 cells assessed as reduction in cell viability by MTT assay; assay type: functional, cell-based
[10] = test system: PC-3; assay: Anticancer activity against human PC-3 cells assessed as reduction in cell viability by MTT assay; assay type: functional, cell-based
[11] = test system: DU-145; assay: Anticancer activity against human DU-145 cells assessed as reduction in cell viability by MTT assay; assay type: functional, cell-based
[12] = test system: BMMC; assay: Anti-osteoclastogenic activity in mouse BMMC assessed as inhibition of RANKL-induced osteoclast differentiation at 5 to 15 uM and measured after 3 days by TRAP staining inverted microscopic analysis; assay type: functional, cell-based; conditions: dose 5-15 µM, time 3.0 day

In the case of `C[C@@H]1C[C@@H]2[C@H](O)[C@H](O)[C@H](C)[C@](O)(/C=C/C=C/C(=O)O)[C@H]2[C@H](C)C1`, the Activity [1] is reported as “inactive”, the IC50 [2] is reported as 15.2 µM and the Activity [3] is reported as “inactive”. The Activity [4] was “inactive”, the Activity [5] was “inactive” and the Activity [6] was “inactive”. For the same compound, the Activity [7] was “inactive”, the Activity [8] was “inactive” and the Activity [9] was “inactive”. The Activity [10] was “inactive” and the Activity [11] was “inactive”.

With `C[C@@H]1C[C@H](C)[C@H](O)c2ccc(CO)c(/C=C/C=C/C(=O)O)c21` the Activity [1] was “inactive”, the IC50 [2] was 10.4 µM and the Activity [12] was “Dose-Dependent Effect”. For the same compound, the Activity [3] was “inactive”, the Activity [4] was “inactive” and the Activity [5] was “inactive”. The Activity [6] was “inactive”, the Activity [7] was “inactive” and the Activity [8] was “inactive”. The Activity [9] was “inactive”, the Activity [10] was “inactive” and the Activity [11] was “inactive”.

For `Cc1ccc2c(c1/C=C/C=C/C(=O)O)[C@H](C)C[C@@](C)(O)C2`, the Activity [1] was “inactive”, the IC50 [2] was 18.6 µM and the Activity [3] was “inactive”. For the same compound, the Activity [4] was “inactive”, the Activity [5] was “inactive” and the Activity [6] was “inactive”. The Activity [7] was “inactive”, the Activity [8] was “inactive” and the Activity [9] was “inactive”. For the same compound, the Activity [10] was “inactive” and the Activity [11] was “inactive”.

For `Cc1ccc(S(=O)(=O)/C=C/C#N)cc1`, the IC50 [2] was 5 µM.
